In US5959178A, “Modification of lignin synthesis in plants” (Imperial Chemical Industries PLC, priority 1991, dated 1999):

Molecular target: T1, purified poplar OMT (Populus trichocarpa x Populus deltoides, UniProt Q9LWB8)
T1 construct: closely related isoforms co-purify
Assay: Specific activity of the purified poplar OMT towards O-diphenolic substrates
Type: biochemical
Protocol: The specific activity of the purified OMT towards three different O-diphenolic substrates was measured. Using catechol, caffeic acid, and hydroxyferulic acid as substrate, we found an OMT activity of 0, 30, and 15 nkat/mg protein, respectively.

T1 sequence (Q9LWB8 entry or part of it T91I): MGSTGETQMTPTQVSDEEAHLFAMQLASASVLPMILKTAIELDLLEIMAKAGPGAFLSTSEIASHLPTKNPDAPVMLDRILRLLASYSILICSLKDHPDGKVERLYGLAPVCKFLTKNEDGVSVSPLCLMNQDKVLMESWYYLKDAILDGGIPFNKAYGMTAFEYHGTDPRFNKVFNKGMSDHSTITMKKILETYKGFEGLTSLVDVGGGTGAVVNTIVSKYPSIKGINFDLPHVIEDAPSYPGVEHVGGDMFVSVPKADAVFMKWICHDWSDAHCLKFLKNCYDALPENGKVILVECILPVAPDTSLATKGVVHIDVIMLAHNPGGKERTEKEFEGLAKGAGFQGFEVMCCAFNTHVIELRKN

Row | Compound | OMT activity (specific activity) with compound as substrate
1 | O=C(O)/C=C/c1ccc(O)c(O)c1 [caffeic acid] | 30 nkat/mg protein
2 | Oc1ccccc1O [catechol] | 0 nkat/mg protein
